Test results published in patent US20050215490A1, “Polyene polyketides and methods of treating bacterial infections” (Ecopia BioSciences, Inc., priority 2003, published 2005).
≈ marks a conversion by molar mass, not a printed value. Like-named read-outs stand apart in the source and are kept apart here.

Experiments:
[1] = system: Micrococcus luteus (ATCC™ 9341); assay: MIC, broth microdilution (NCCLS M7-A5); format: cell-based; details: ATCC9341, M. luteus ATCC 9341, Mueller-Hinton, 35° C., 18 hours, read-out: MIC
Procedure: (§1) Antibacterial activity of Compounds 1 and 2 (Table 4) was measured by determining the minimal inhibitory concentration (MIC) necessary to obtain a complete inhibition of bacteria growth in eight indicator strains, namely Staphylococcus aureus (ATCC™ 6538P), Staphylococcus aureus MRS3 (ATCC™ 700699), Staphylococcus epidermidis (ATCC™ 12228), Bacillus subtilis (ATCC™ 23857), Bacillus megaterium (ATCC™ 14581), Enterococcus faecalis VRE-1 (ATCC™ 29212), Enterococcus faecalis VRE-2 (ATCC™ 51299) and Micrococcus luteus (ATCC™ 9341). Indicator strains preparation and MIC determination were performed according to the National Committee for Clinical Laboratory Standards (NCCLS) guideline M7-A5 Methods for Dilution Antimicrobial Susceptibility Tests for Bacteria That Grow Aerobically; Approved Standard-Fifth Edition. (NCCLS document M7-A5, ISBN 1-56238-394-9; NCCLS, 940 West Valley Road, Suite 1400, Wayne, Pa. 19087-1898 USA), the content of which is incorporated herein by reference.
(§2) Compounds 1 and 2 were prepared as 100× stock solution in DMSO, with concentrations ranging from 3.2 mg/ml to 0.00625 mg/ml (a two-fold dilution series over […]). An aliquot of each 100× stock solution was diluted 50-fold in test medium described below to give a set of ten (10) 2× solutions ranging from 64 to 0.125 μg/mL. 50 μl of each of the ten 2× solutions was aliquoted into the corresponding well of a 12-well row, with the final well reserved for medium alone control. Each test was made in duplicate.
(§3) Vancomycin (Sigma™) used as positive control compounds, was prepared as 2× stock solutions in sterile, double-distilled water (ddH2O) ranging from 64 μg/ml to […] (a two-fold dilution series over 10 points). An aliquot of 50 μl corresponding to each concentration (at 2×) was then transferred to 96-well microplates to obtain a series of eleven two-fold dilutions.
(§4) An isolated colony of each of the eight indicator strains was used to inoculate tubes containing 3 ml of test medium. Mueller-Hinton test medium was used for Staphylococcus aureus (ATCC™ 6538P), Staphylococcus aureus MRS3 (ATCC™ 700699), Staphylococcus epidermidis (ATCC™ 12228), Bacillus subtilis (ATCC™ 23857), Bacillus megaterium (ATCC™ 14581) and Micrococcus luteus (ATCC™ 9341) indicator strains, and BHI (Brain-Heart Infusion broth) test medium was used for Enterococcus faecalis VRE-1 (ATCC™ 29212) and Enterococcus faecalis VRE-2 (ATCC™ 51299) indicator strains. Cells were grown overnight at 28° C. with shaking. Inoculum density for each indicator strain was adjusted to OD600=0.1 in 5 ml 0.85% saline, then further diluted 1/100 in appropriate medium. 50 μl of the final dilution (in test medium) of each indicator strain was added to each well of a 12-well row. This brings the final dilution of the test article or control compound in solution to 1×. The final inoculum is approximately 5×10^5 CFU/ml.
(§5) The indicator strains were incubated with 11 concentrations of each of Compounds 1 and 2, Vancomycin (Sigma™) control compound and one media alone control. For MIC determination, assay plates were incubated at 35° C. for 18 hours.

[2] = system: Staphylococcus epidermidis (ATCC™ 12228); assay: MIC, broth microdilution (NCCLS M7-A5); format: cell-based; details: read-out: MIC
Procedure: as §1, §2, §3, §4, §5

[3] = system: Staphylococcus aureus (ATCC™ 6538P); assay: MIC, broth microdilution (NCCLS M7-A5); format: cell-based; details: read-out: MIC
Procedure: as §1, §2, §3, §4, §5

[4] = system: Enterococcus faecalis VRE-1 (ATCC™ 29212); assay: MIC, broth microdilution (NCCLS M7-A5); format: cell-based; details: E. faecalis ATCC 29212, BHI, 35° C., 18 hours, read-out: MIC
Procedure: as §1, §2, §3, §4, §5

[5] = system: Enterococcus faecalis VRE-2 (ATCC™ 51299); assay: MIC, broth microdilution (NCCLS M7-A5); format: cell-based; details: E. faecalis ATCC 51299, BHI, 35° C., 18 hours, read-out: MIC
Procedure: as §1, §2, §3, §4, §5

[6] = system: S. aureus MRSA-hVISA (ATCC™ 700699); assay: Minimal bactericidal concentration (NCCLS M26-A); format: cell-based, Staphylococcus aureus; details: for MBC: Staphylococcus aureus, more than 99.9% growth inhibition
Procedure: (§6) Minimal bactericidal concentration (MBC) was also determined for Compounds 1 and 2. […] MBC were measured against three Staphylococcus strains, namely sp. aureus MSSA (ATCC™ 6538P), sp. aureus MRSA-hVISA (ATCC™ 700699) and sp. epidermidis (ATCC™ 12228). The results, shown in Table 6 below, were consistent with bactericidal activity (MBC/MIC ratio were of 1 to 2).
(§7) MBC determination was performed according to the NCCLS guideline M26-A: Methods for Determining Bactericidal Activity of Antimicrobial Agents (NCCLS document […], ISBN 1-56238-394-9; NCCLS, 940 West Valley Road, Suite 1400, Wayne, Pa. 19087-1898 USA), the content of which is incorporated herein by reference.
(§8) Microdilutions broth assays were performed using the same procedure as for MIC determination, Example 6. 24 hours post-incubation, cells were collected in wells corresponding to the MIC, 2×MIC and 4×MIC. Collected cells were plated on agar media. MBC were determined as the drug concentration at which more than 99.9% growth inhibition was observed. As a reference for 100% growth, cells grown in media only were also plated.

[7] = system: S. aureus MSSA (ATCC™ 6538P); assay: Minimal bactericidal concentration (NCCLS M26-A); format: cell-based, Staphylococcus aureus; details: for MBC: Staphylococcus aureus, more than 99.9% growth inhibition
Procedure: as §6, §7, §8

[8] = in vitro; format: cell-based; details: sheep; concentration to achieve 50% hemolysis of SRBC; read-out: In vitro Hemolytic activity (EC50)
Procedure: A. Toxicity: Acute toxicities were determined using CD-1 female mice (supplied by Charles River Laboratories, Wilmington, Mass.) having a bodyweight of 18-25 g, and about 6 weeks of age. Compounds 1 and 2 at doses ranging from 1 to 70 mg/kg (formulated in 20% propylene glycol/water for a total volume of 10 μL/g of weight) were administered intraperitoneal (i.p.) and intravenous (i.v.) to groups of 5 mice (5 mice per concentration, per mode of administration). Two groups of 3 mice were injected with vehicle only. Mice were observed immediately after injection, within 4 hours and once a day for the subsequent days. Acute toxicity studies of Compound 1 in mice indicated no observable effect and high dose tolerability: 70 mg/kg intraperitoneal and 50 mg/kg intravenous (an MTD of 250 mg/kg was also determined by oral administration). […] In vitro Haemolytic activity results are also shown in Table 7, along with the in vivo toxicity and efficacy of Compound 1.

[9] = ATCC12228, S. epidermidis ATCC 12228, Mueller-Hinton, 35° C., 18 hours
[10] = ATCC6538P, S. aureus ATCC 6538P, Mueller-Hinton, 35° C., 18 hours

| SMILES | MIC [1] | MIC [2, 9] | MIC ([2]; Table 6, S. epidermidis) | MIC [3, 10] | MIC ([3]; Table 6, S. aureus MSSA) | MIC [4] | MIC [5] | MBC/MIC [6] | MBC [6] | MBC/MIC [7] | MBC [7] | EC50 [8] |
| --- | --- | --- | --- | --- | --- | --- | --- | --- | --- | --- | --- | --- |
| C\C(=C/C=C/C=C/C=C/C=C/C(C)C(OC1OC(C(=O)O)C(O)C(O)C1O)/C(C)=C/C(C)CCC/C=C/C(C)C/C=C/CCCNC(=N)N)C(=O)NC1=C(O)CCC1=O (centres unmarked) [Compound 2, 6-{16-guanidino-1-[11-(2-hydroxy-5-oxocyclopent-1-enylcarbamoyl)-1-methyldodeca-2,4,6,8,10-pentaenyl]-2,4,10-trimethylhexadeca-2,8,12-trienyloxy}-3,4,5-trihydroxy-tetrahydro-pyran-2-carboxylic acid] | 1 to 2 µg/mL (≈ 1.22 to 2.43 µM) | 1 µg/mL (≈ 1.22 µM) | 1 µg/mL (≈ 1.22 µM) | 1 µg/mL (≈ 1.22 µM) | 1 µg/mL (≈ 1.22 µM) | 16 µg/mL (≈ 19.4 µM) | 16 µg/mL (≈ 19.4 µM) | 2 | 2 µg/mL (≈ 2.43 µM) | 2 | 2 µg/mL (≈ 2.43 µM) |  |
| CC(=CC=CC=CC=CC=CC(C)C(OC1OC(C(=O)O)C(O)C(O)C1O)C(C)=CC(C)CCCC=CC(C)CC=CCCCN(C)C(=N)N)C(=O)NC1=C(O)CCC1=O (centres unmarked) [Compound 1, 3,4,5-trihydroxy-6-[1-[11-(2-hydroxy-5-oxocyclopent-1-enylcarbamoyl)-1-methyldodeca-2,4,6,8,10-pentaenyl]-2,4,10-trimethyl-16-(N-methyl-guanidino)-hexadeca-2,8,12-trienyloxy]-tetrahydropyran-2-carboxylic acid] | 4 µg/mL (≈ 4.78 µM) | 4 µg/mL (≈ 4.78 µM) | 4 µg/mL (≈ 4.78 µM) | 2 µg/mL (≈ 2.39 µM) | 2 µg/mL (≈ 2.39 µM) | 8 to 16 µg/mL (≈ 9.56 to 19.1 µM) | 16 µg/mL (≈ 19.1 µM) | 1 | 4 µg/mL (≈ 4.78 µM) | 2 | 4 µg/mL (≈ 4.78 µM) | > 128 µg/mL |
